Assay results as given in patent publication US20100035943A1, “Oxa-and thiadiazoles and their use as metalloproteinase inhibitors” (VERNALIS (OXFORD) LTD, priority 2002, published 2010).

Columns and labels:
92 kDa gelatinase (MMP9) = 92 kDa gelatinase (MMP9) (Homo sapiens, UniProt P14780); experiment: MMP9 enzyme inhibition assay (fluorogenic peptide substrate McaPLGLDpaAR); assay type: biochemical; details: recombinant human 92 kDa gelatinase, 37° C., 2 hours
Procedure: (§1) Compounds were tested for inhibitory activity against 92 kDa gelatinase (MMP9) in an assay using a coumarin-labelled peptide substrate, (7-methoxycoumarin-4-yl)acetyl-Pro-Leu-Gly-Leu-(3-[2,4-dinitrophenyl]-L-2,3-diaminopropionyl)-Ala-Arg-NH2 (McaPLGLDpaAR) (Knight et al, FEBS Lett. 1992; 263-266).
(§2) Stock solutions were made up as follows: • Assay Buffer: 100 mM Tris-HCl pH 7.6 containing 100 mM NaCl, 10 mM CaCl2, and 0.05% Brij 35 • Substrate: 0.4 mM McaPLGLDpaAR (from Bachem) (0.437 mg/ml) stock solution in 100% DMSO (stored at −20° C.). Dilute to 8 μM in assay buffer. • Enzyme: Recombinant human 92 kDa gelatinase (MMP-9; APMA (4-aminophenyl • mercuric acetate)—activated if necessary) appropriately diluted in assay buffer.
(§3) Test Compounds were prepared initially as 10 mM compound solution in 100% DMSO, diluted to 1 mM in 100% DMSO, then serially diluted 3-fold in 100% DMSO across columns 1-10 of a 96-well microtitre plate Assay concentration range, 100 μM (column 1) to 5.1 nM (column 10)
(§4) The assay was performed in a total volume of 100 μl per well in 96-well microtitre plates. Activated enzyme (20 μl) was added to the wells followed by 20 μl of assay buffer. Appropriate concentrations of test compounds dissolved in 10 μl of DMSO were then added followed by 50 μl of McaPLGLDpaAR (8 μM, prepared by dilution of DMSO stock in assay buffer). For each assay ten concentrations of test compound were examined in duplicate. Control wells lack either enzyme or test compound. The reactions were incubated at 37° C. for 2 hours. The fluorescence at 405 nm was measured immediately with an SLT Fluostar fluorometer (SLT Labinstruments GmbH, Grödig, Austria) using 320 nm excitation, without stopping the reaction.
(§5) The effect of the test compound was determined from the dose response curve generated by the 10 duplicate concentrations of inhibitor. The IC50 (the concentration of compound required to give a 50% decrease in enzyme activity) was obtained by fitting data to the equation, Y=a+((b−a)/(1+(c/X)^d)). (Y=inhibition achieved for a particular dose; X=the dose in nM; a=minimum y or zero % inhibition; b=maximum y or 100% inhibition; c=is the IC50; d=is the slope). The result was rounded to one significant figure.

[1] = test system: IL2-induced lymphocyte recruitment; experiment: IL2-induced peritoneal recruitment of lymphocytes; assay type: in vivo, C3H/HEN mice; details: mice, Subcutaneous route, 15 min prior to IL2, cells counted 24 hours after IL2
Procedure: Administration of IL2 intraperitoneally causes migration of lymphocytes into the intraperitoneal cavity. This is a model for the cellular migration that occurs during inflammation.
C3H/HEN mice (Elevage Janvier, France) were intraperitoneally injected with IL2 (Serono Pharmaceutical Research Institute, 20 μg/kg, in saline). Compounds of the invention were suspended in 0.5% carboxymethylcellulose (CMC)/0.25% tween-20 and were administered by sc or po route (10 ml/kg) 15 min prior to administration of IL2.
Twenty-four hours after administration of IL2, peritoneal white blood cells were collected by 3 successive lavages of the peritoneal cavity with 5 ml phosphate buffered saline (PBS)-1 mM EDTA (+4° C.). The suspension was centrifuged (1700 g×10 min at +4° C.). The resulting pellet was suspended in 1 ml PBS-1 mM EDTA.
Lymphocytes were identified and counted using a Beckman/Coulter counter.
The animals were divided into 5 groups (6 mice each group):
Group 1: (baseline) received 0.5% CMC/0.25% tween-20 (vehicle of compound of the invention) and saline (vehicle of IL2); Group 2: (control IL2) received 0.5% CMC/0.25% tween-20 and injection of IL2; Group 3: Experimental group (Compound of the invention Dose 1) received a compound of the invention and injection of IL2; Group 4: Experimental group (Compound of the invention Dose 2) received a compound of the invention and injection of IL2; Group 5: Experimental group (Compound of the invention Dose 3) received a compound of the invention and injection of IL2; Group 6: Reference group received reference compound dexamethasone and injection of IL2
Inhibition of lymphocyte recruitment was calculated as follows:
Where Ly 1=Number of lymphocytes in group 1 (E3/μl), Ly 2=Number of lymphocytes in group 2 (E3/μl), Ly X=Number of lymphocytes in group X (3-5) (E3/μl)
The dose of compound of the invention required to inhibit lymphocyte recruitment by 50% (ID50) was calculated using a curve-fitting routine.

metalloelastase (MMP12) = metalloelastase (MMP12) (Homo sapiens, UniProt P39900); experiment: MMP12 enzyme inhibition assay (fluorogenic peptide substrate McaPLGLDpaAR); assay type: biochemical; details: protocol as for MMP9 assay
Chain of metalloelastase (MMP12) (P39900 106-470): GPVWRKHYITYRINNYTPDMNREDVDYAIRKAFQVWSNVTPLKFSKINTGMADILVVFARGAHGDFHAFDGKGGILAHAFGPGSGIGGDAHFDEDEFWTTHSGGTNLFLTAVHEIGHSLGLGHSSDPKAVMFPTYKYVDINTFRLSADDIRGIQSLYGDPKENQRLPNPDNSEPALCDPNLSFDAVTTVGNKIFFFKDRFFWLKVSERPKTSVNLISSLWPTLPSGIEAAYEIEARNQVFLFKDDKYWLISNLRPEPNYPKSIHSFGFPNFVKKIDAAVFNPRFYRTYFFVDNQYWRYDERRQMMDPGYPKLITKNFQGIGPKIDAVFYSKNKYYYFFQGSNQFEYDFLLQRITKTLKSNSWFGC
Procedure: as §2, §3, §4, §5
as §1, with “metalloelastase (MMP12)” for “92 kDa gelatinase (MMP9)”, “263-266). The protocol for this assay was as described for the MMP9 assay above.” for “263-266).”

collagenase (MMP1) = molecular target: T1, collagenase (MMP1) (Homo sapiens, UniProt P03956); experiment: MMP1 enzyme inhibition assay (fluorogenic peptide substrate McaPLGLDpaAR); assay type: biochemical; details: protocol as for MMP9 assay
T1 sequence (P03956 100-469): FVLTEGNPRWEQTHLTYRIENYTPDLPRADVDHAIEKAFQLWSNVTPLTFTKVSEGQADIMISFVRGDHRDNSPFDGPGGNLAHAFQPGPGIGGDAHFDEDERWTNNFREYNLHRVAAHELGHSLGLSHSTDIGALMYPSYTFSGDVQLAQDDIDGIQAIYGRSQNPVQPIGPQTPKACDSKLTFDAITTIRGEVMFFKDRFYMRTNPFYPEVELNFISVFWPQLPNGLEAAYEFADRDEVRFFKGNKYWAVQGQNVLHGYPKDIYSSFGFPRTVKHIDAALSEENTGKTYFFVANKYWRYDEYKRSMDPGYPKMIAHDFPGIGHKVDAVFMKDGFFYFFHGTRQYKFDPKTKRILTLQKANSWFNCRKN
Procedure: as §2, §3, §4, §5
as §1, with “• Compounds” for “Compounds”, “collagenase (MMP1)” for “92 kDa gelatinase (MMP9)”, “263-266). The protocol for this assay was as described for the MMP9 assay above.” for “263-266).”

Chain of 92 kDa gelatinase (MMP9) (P14780 107-707 limits assumed): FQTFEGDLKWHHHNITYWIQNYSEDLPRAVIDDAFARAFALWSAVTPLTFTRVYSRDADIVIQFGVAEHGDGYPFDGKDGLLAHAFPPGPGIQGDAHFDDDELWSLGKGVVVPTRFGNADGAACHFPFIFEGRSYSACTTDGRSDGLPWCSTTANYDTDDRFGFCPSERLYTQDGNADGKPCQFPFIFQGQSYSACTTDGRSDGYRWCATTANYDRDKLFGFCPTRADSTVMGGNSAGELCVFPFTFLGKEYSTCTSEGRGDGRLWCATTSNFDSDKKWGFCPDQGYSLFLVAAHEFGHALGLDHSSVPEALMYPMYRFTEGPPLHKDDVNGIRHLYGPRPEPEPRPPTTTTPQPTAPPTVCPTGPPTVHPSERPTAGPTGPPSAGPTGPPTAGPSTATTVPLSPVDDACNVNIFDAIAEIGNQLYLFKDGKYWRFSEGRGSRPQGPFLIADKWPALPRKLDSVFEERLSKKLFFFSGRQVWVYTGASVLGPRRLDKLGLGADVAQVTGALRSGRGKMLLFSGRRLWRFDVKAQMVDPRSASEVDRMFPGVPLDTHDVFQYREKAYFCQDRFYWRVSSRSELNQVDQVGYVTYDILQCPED

Row | Compound | IC50 (92 kDa gelatinase (MMP9)) [µM] | IC50 (metalloelastase (MMP12)) [µM] | IC50 (collagenase (MMP1)) [µM] | ID50 for inhibition of IL2-induced peritoneal recruitment of lymphocytes [1] [mg/kg]
1 | CC(C)C[C@@H](C(=O)N[C@H](c1noc(-c2ccco2)n1)C(C)(C)C)[C@H](O)C(=O)NO [Example 5, 2S-Hydroxy-3R-[1S-(5-furan-2-yl-[1,2,4]oxadiazol-3-yl)-2,2-dimethyl-propylcarbamoyl]-5-methyl Hexanohydroxamic Acid] | 0.1 to 1 | < 0.1 | 0.1 to 1 | 1
2 | CC(C)C[C@@H](C(=O)N[C@H](c1nc(-c2ccccc2)no1)C(C)C)[C@H](O)C(=O)NO [Example 19, 2S, N1-Dihydroxy-3R-isobutyl-N4-[2-methyl-1S-(3-phenyl-[1,2,4]oxadiazol-5-yl)-propyl]-succinamide] | 0.1 to 1 | < 0.1 | 0.1 to 1 | –
3 | C=CC[C@H](C(=O)NO)[C@@H](CC(C)C)C(=O)N[C@@H](Cc1ccccc1)c1nc(-c2ccccc2)no1 [Example 20, 2S-Allyl-5-methyl-3R-[2-phenyl-1S-(3-phenyl-[1,2,4]oxadiazol-5-yl)-ethylcarbamoyl]-hexanohydroxamic Acid] | < 0.1 | < 0.1 | 0.1 to 1 | –
4 | C=CC[C@H](C(=O)NO)[C@@H](CC(C)C)C(=O)N[C@@H](Cc1ccccc1)c1nc(C(C)C)no1 [Example 21, 2S-Allyl-5-methyl-3R-[2-phenyl-1S-(3-isopropyl-[1,2,4]oxadiazol-5-yl)-ethylcarbamoyl]-hexanohydroxamic Acid] | < 0.1 | < 0.1 | 0.1 to 1 | –
5 | C=CC[C@H](C(=O)NO)[C@@H](CC(C)C)C(=O)N[C@H](c1nc(C)no1)C(C)(C)C [Example 23, 2S-Allyl-3R-[2,2-dimethyl-I S-(3-methyl-[1,2,4]oxadiazol-5-yl)-propylcarbamoyl]-5-methyl-hexanohydroxamic Acid] | < 0.1 | < 0.1 | 0.1 to 1 | –
6 | CC(C)C[C@H](CC(=O)NO)C(=O)N[C@H](c1nc(-c2ccccc2)no1)C(C)(C)C [Example 24, 3R-[2,2-Dimethyl-1S-(3-phenyl-[1,2,4]oxadiazol-5-yl)-propylcarbamoyl]-5-methyl-hexanohydroxamic Acid] | 1 to 10 | < 0.1 | 1 to 10 | –
7 | C[C@@H]1C[C@H]2[C@@H]3CCC4=CC(=O)C=C[C@]4(C)[C@@]3(F)[C@@H](O)C[C@]2(C)[C@@]1(O)C(=O)CO [dexamethasone, reference compound] | – | – | – | 0.05

More lines, main results first:

Row | IC50 (92 kDa gelatinase (MMP9)) [µM] | IC50 (metalloelastase (MMP12)) [µM] | IC50 (collagenase (MMP1)) [µM] | Compound | ID50 for inhibition of IL2-induced peritoneal recruitment of lymphocytes [1] [mg/kg]
8 | 0.1 to 1 | < 0.1 | 0.1 to 1 | CO[C@H](C(=O)NO)[C@@H](CC(C)C)C(=O)N[C@@H](Cc1ccccc1)c1nc(C)no1 [Example 25, 2S-Methoxy-5-methyl-3R-[1S-(3-methyl-[1,2,4]oxadiazol-5-yl)-2-phenyl-ethylcarbamoyl]-hexanohydroxamic Acid] | –
9 | 1 to 10 | 0.1 to 1 | 1 to 10 | CC(C)C[C@@H](C(=O)N[C@H](c1noc(-c2cccs2)n1)C(C)(C)C)[C@H](O)C(=O)O [Example 29, 3R-[2,2-Dimethyl-1S-(5-thiophen-2-yl-[1,2,4]oxadiazol-3-yl)-propylcarbamoyl]-2S-hydroxy-5-methyl-hexanoic Acid] | –
10 | > 10 | 1 to 10 | > 10 | CC(C)C[C@@H](C(=O)N[C@H](c1noc(-c2ccco2)n1)C(C)(C)C)[C@H](O)C(=O)O [Example 30, 3R-[1S-(5-Furan-2-yl-[1,2,4]oxadiazol-3-yl)-2,2-dimethyl-propylcarbamoyl]-2S-hydroxy-5-methyl-hexanoic Acid] | –
11 | > 10 | 0.1 to 1 | > 10 | CC(C)(C)[C@H](NC(=O)[C@H](C/C=C/c1ccccc1)[C@H](O)C(=O)NO)c1nc(-c2ccccc2)no1 [Example 31, N4-[2,2-Dimethyl-1S-(3-phenyl-[1,2,4]oxadiazol-5-yl)-propyl]-2S,N1-dihydroxy-3R-(3-phenyl-allyl)-succinamide] | –
12 | < 0.1 | < 0.1 | < 0.1 | CC(C)c1noc([C@@H](NC(=O)[C@H](CC2CCCC2)[C@H](O)C(=O)NO)C(C)(C)C)n1 [Example 32, 2R-Cyclopentylmethyl-3S,N4-dihydroxy-N1-[1S-(3-isopropyl-[1,2,4]oxadiazol-5-yl)-2,2-dimethyl-propyl]-succinamide] | –
13 | > 10 | 0.1 to 1 | > 10 | CC(C)(C)[C@H](NC(=O)[C@H](CCCc1cc(C(F)(F)F)cc(C(F)(F)F)c1)[C@H](O)C(=O)NO)c1noc(-c2cccs2)n1 [Example 33, 2R-[3-(3,5-Bis-trifluoromethyl-phenyl)-propyl]-N1-[2,2-dimethyl-1S-(5-thiophen-2-yl-[1,2,4]oxadiazol-3-yl)-propyl]-3S, N4-dihydroxy-succinamide] | –
14 | > 10 | > 10 | > 10 | CC(C)(C)[C@H](NC(=O)[C@H](CCCc1cc(C(F)(F)F)cc(C(F)(F)F)c1)[C@H](O)C(=O)NO)c1noc(-c2ccco2)n1 [Example 34, 2R-[3-(3,5-Bis-trifluoromethyl-phenyl)-propyl]-N1-[1S-(5-furan-2-yl-[1,2,4]oxadiazol-3-yl)-2,2-dimethyl-propyl]-3S,N4-dihydroxy-succinamide] | –
15 | < 0.1 | < 0.1 | > 10 | CCOc1ccc(CCC[C@@H](C(=O)N[C@H](c2noc(-c3ccco3)n2)C(C)(C)C)[C@H](O)C(=O)NO)cc1 [Example 35, 2R-[3-(4-Ethoxy-phenyl)-propyl]-N1-[1S-(5-furan-2-yl-[1,2,4]oxadiazol-3-yl)-2,2-dimethyl-propyl]-3S,N4-dihydroxy-succinamide] | –
